# From US20250084453A1, “SYSTEMS, COMPOSITIONS AND METHODS FOR IDENTIFYING E3 LIGASE SUBSTRATES BY UBIQUITIN BIOTINYLATION” (The Broad Institute, Inc., priority 2022, published 2025)
# Experiments:
# [1] = tested on: CRBN E3 ligase; experiment: MS comparison of loss-of-function CRBN-BirA mutants (D249Y, W386A) with WT CRBN-BirA under CC-885; type: cell-based, human; conditions: CC-885 1 μM, 1 hour; D249Y and W386A; FIGS. 16A, 16B
# Protocol: Experiments were performed to identify substrates of an E3 ligase using CRBN as a representative E3 ligase. The experiments compared loss-of-function mutants of an E3 ligase (e.g., CRBN E3 ligase) to the wildtype (WT) ligase. FIGS. 16A and 16B show the results of a mass spectrometry experiment in which protein substrates susceptible to CC-885 induced ubiquitination were identified. These experiments were performed in HEK293T^CRBN−/− cells transiently expressing A3-HA-Ub and either WT CRBN-BirA or CRBN-BirA mutant D249Y (FIG. 16A) or CRBN-BirA mutant W386A (FIG. 16B). Compared with CRBN(WT), CRBN(D249Y) had decreased association with the CRL4 complex, while CRBN(W386A) had decreased affinity for CC-885. Both mutants were expected to have a diminished ability to ubiquitinate CC-885-induced substrates. While cultured in biotin-free medium, the cells were pre-treated with carfilzomib (carf; 0.4 μM) for 1 hour, and then were treated with the IMiD derivative CC-885 (1 μM) for another hour. […] Enrichment of biotinylated species by streptavidin-coated beads, protein digestion, and protein identification and quantification by mass spectrometry were performed exactly as described in Example 3 and 4. […]
# [2] = tested on: GSPT1; experiment: GSPT1 degradation by Western blot in HEK293T cells and CRBN-/- derivatives; type: cell-based, human
# Protocol: However, instead of assessing transiently-expressed V5-tagged IKZF1, an endogenous neo-substrate of CRBN, namely, GSPT1, was assessed. […] Following incubation with the components and added agents, the cells were lysed, and streptavidin-coated beads were used to capture from the cell lysate biotinylated, ubiquitinated proteins, e.g., the endogenous GSPT1 substrate. The biotinylated proteins eluted from the beads were subjected to Western blot analyses.
compound,measurement,setting,value
Cc1ccc(NC(=O)NCc2ccc3c(c2)CN(C2CCC(=O)NC2=O)C3=O)cc1Cl (centres unmarked) [CC-885],Induced ubiquitinated substrates revealed by decreased biotinylation with CRBN-BirA mutants versus WT,[1],"GSPT1, GSPT2, VCL and CSNK1A1"
same,"GSPT1 degradation (Western blot, FIG. 5A)","[2]; 293T CRBN-/- CRBN-BirA cells with Avi-HA-Ub, 1 μM, 2 hours",degraded
same,GSPT1 degradation (Western blot),"[2]; 293T CRBN-/- cells expressing BirA-CRBN or CRBN-BirA, 1 μM, 4 hours",degraded
same,GSPT1 degradation (Western blot),"[2]; 293T CRBN-/- cells, 1 μM, 4 hours",not degraded
same,GSPT1 degradation (Western blot),"[2]; HEK293T cells, 10 nM, 100 nM, 1 μM or 10 μM for 3.5 hours",degraded in cells in a dose-dependent matter
